Measured values published in PubChem BioAssay AID179 (DTP/NCI, 2004).
Calls of active or inactive are those of the source.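 Rule for the calls: active = compounds giving half or more protection of infected cells from virus-caused growth loss, again on retest; inactive = the rest.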

Tested on: CEM cells HIV-1 protection, formazan growth assay
Experiment: NCI AIDS Antiviral Assay
Conditions: for IC50: measured here: growth of uninfected CEM cells
Outline: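 Screen of anti-HIV-1 activity in human CEM cells using a formazan-based growth measurement at five drug concentrations. Hits with 50% or greater protection were repeated, and confirmation required reproducible complete protection.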

Structure (SMILES) | EC50 | IC50 | outcome
O=C1C=CC(=O)c2nc(-c3ccccc3)c(-c3ccccc3)nc21 | 0.363 µM | 12 µM | 
COC(=O)CCSC(=O)Nc1ccccc1Cl |  |  | inactive
CC1=NNC(=O)C1C1(C(=O)O)CC(c2c[nH]c3ccccc23)=NC(=S)N1 (stereo not given) | > 100 µM | 69.2 µM | 
Cc1ccc(S(=O)(=O)c2c(N)c3nccn3c3nc4ccccc4nc23)cc1 | > 25.7 µM | > 25.7 µM | 
COc1ccc(C(Cc2ccccc2)C2NC(=S)NC2=O)cc1 (stereo not given) | > 200 µM | 58.9 µM | 
COc1ccc(Cc2nccc3cc(OC)c(OC)cc23)cc1 | > 72.4 µM | 69.2 µM | 
CC1[C@@H](OCc2ccccc2)COC(=O)N1Cc1ccccc1 (stereo not given in full) | > 200 µM | 89.1 µM | 
COc1cc(C(O)C(=O)c2nc3ccc([N+](=O)[O-])cc3[nH]c2=O)ccc1O (stereo not given) | > 251 µM | > 251 µM | 
O=c1[nH]c2ccccc2c(=O)c2ccccc12 | > 32.4 µM | > 32.4 µM | 
O=C(O)CNS(=O)(=O)c1ccc(NC(=O)c2ccc(F)cc2)cc1 |  |  | inactive
O=C1c2ccccc2C(=O)c2c(Nc3cccc4c3C(=O)c3ccccc3C4=O)cccc21 | > 200 µM | > 200 µM | 
C=CCc1cc2c(cc1COCOCCOCCOCCCC)OCO2 | > 200 µM | 44.7 µM | 
Cc1ccc(-n2cnc3c(N/N=C4\SCC(=O)N4c4ccccc4)ncnc32)cc1 |  |  | inactive
Cc1ccc(C(=O)O)c(/C=C2\Cc3cc(C)cc(C)c3C2=O)c1 |  |  | inactive
NC(=S)N/N=C1\CCc2ccccc2C1 | > 575 µM | 15.8 µM | 
Cc1cc(Cl)ccc1N=NC(=O)NNc1ccc(Cl)cc1C | > 200 µM | 52.5 µM | 
CN(C)CC1CCC(CN(C)C)C(=O)C1=O (stereo not given) | > 200 µM | 0.49 µM | 
O=c1[nH]cnc2c1CN(c1ccccc1)C2 | > 234 µM | > 234 µM | 
NC(CSSCC(N)=NCC12CC3CC(CC(C3)C1)C2)=NCC12CC3CC(CC(C3)C1)C2 | > 200 µM | 30.9 µM | 
O=C1c2c(O)cc(O)cc2O[C@H](c2ccc(O)cc2)[C@H]1[C@@H]1C(=O)c2c(O)cc(O)cc2O[C@H]1c1ccc(O)cc1 | > 200 µM | 8.51 µM | 
COc1ccc(OC(=O)N2C/C(=C\c3ccccc3)C(=O)/C(=C/c3ccccc3)C2)cc1 |  |  | inactive
Cc1ccccc1NC(=O)C(=O)C(c1cnc2ccc([N+](=O)[O-])cc2n1)[N+](=O)[O-] (stereo not given) | > 240 µM | 126 µM | 

Structure (SMILES) | EC50 | IC50 | outcome
CC(=C(C#N)C#N)c1ccc(F)cc1 | > 138 µM | 112 µM | 
CCOC(=O)/C(F)=C/c1ccc(C#N)cc1 | > 33.1 µM | > 33.1 µM | 
Cn1c(=O)c(=O)n(C)c2nc3ccccc3nc21 | > 4.27 µM | > 4.27 µM | 
CCOC(=O)/C=C1\C[C@H](NC(=O)OCc2ccccc2)C(=O)N1CC(=O)OCC | > 200 µM | > 200 µM | 
CN(CCO)c1cnn(CCO)c(=O)c1Cl | > 200 µM | > 200 µM | 
NC(CS)=NCc1ccccc1 | > 200 µM | 33.1 µM | 
NNC(=O)C(=O)N/N=C1/CCCC1C(=O)CCC(=O)Nc1ccc(Cl)cc1 (stereo not given) | > 66.1 µM | > 66.1 µM | 
CC(=O)OCC(OC(C)=O)C(OC(C)=O)C(OC(C)=O)C(/C=N\Nc1nc2ccccc2c(=O)[nH]1)=N/Nc1nc2ccccc2c(=O)[nH]1 (stereo not given) | > 100 µM | > 100 µM | 
CC(C)(C)OC(=O)NC(Cc1ccccc1)C(=O)N[C@H]1c2ccsc2/C(=N/O)[C@H]1O (stereo not given in full) | > 200 µM | 91.2 µM | 
O=C(O)c1cc2cc([N+](=O)[O-])ccc2oc1=O | > 447 µM | > 447 µM | 
CCc1cccc(C)c1NC(=O)CCc1nnc(SC)o1 | > 162 µM | > 162 µM | 
CCOC(=O)C1(C/C=C/CCl)CCCC1=O (stereo not given) | > 200 µM | 10 µM | 
CN(C)CC1CCCC(CN(C)C)C1=NOC(=O)c1ccccc1 (stereo not given) | > 200 µM | 174 µM | 
CO[C@H]1ON=C(c2c(C)cc(C)cc2C)[C@@H]1C1(c2ccccc2)ON=C(c2c(C)cc(C)cc2C)O1 (stereo not given in full) | > 200 µM |  | 
NC(=O)c1nc(-c2ccc(Cl)c(Cl)c2)nc2ccccc12 |  |  | inactive
CCC(=O)NC(Nc1ccccc1F)(C(F)(F)F)C(F)(F)F | > 200 µM | > 200 µM | 
CC(C)CCN=c1cc2n(-c3ccc(Cl)cc3)c3ccccc3nc-2cc1Nc1ccc(Cl)cc1 |  |  | inactive
CC(=O)c1sc(Nc2ccc(Cl)c(Cl)c2)nc1C |  |  | inactive
O=C(CCl)N1CCC(CC2(c3cc4ccccc4[nH]3)OCCO2)CC1 | > 200 µM | 5.01 µM | 
CN(C)c1ccc(C2ON=C(c3ccccc3)N2C23CC4CC(CC(C4)C2)C3)cc1 (stereo not given) | > 200 µM | 24 µM | 
CC1=C(O)C(=O)C2C(=O)C1C(C)C2c1ccccc1 (stereo not given) | > 195 µM | > 195 µM | 
COc1ccc(-c2c(-c3ccccc3)c(C)nc3nc(SC)nc(SC)c23)cc1OC | > 200 µM | 11.5 µM | 

Structure (SMILES) | EC50 | IC50 | outcome
c1ccc2c(c1)C1CCCCCC21N1CCOCC1 (stereo not given) | > 200 µM | 170 µM | 
O=C1Nc2ccc(Cl)cc2C(c2ccccc2Cl)=NC1O (stereo not given) |  |  | inactive
CSc1nc2c(c(O)c(C)c(=O)n2C2OC(COC(C)=O)C(OC(C)=O)C(OC(C)=O)C2OC(C)=O)c(=O)n1C (stereo not given) | > 44.7 µM | > 44.7 µM | 
Nc1ccc2c(c1)C(=O)OC2(C(F)(F)F)C(F)(F)F | > 200 µM | 93.3 µM | 
CC1(C)O[C@@H]([C@@H](O)[C@H](O)C2SCCCS2)[C@@H](CO)O1 | > 200 µM | > 200 µM | 
COC(=O)C1(NC(=O)C(CC(=O)OCc2ccccc2)NC(=O)OCc2ccccc2)CCCCCCC1 (stereo not given) | > 200 µM | 11.7 µM | 
Nc1nc(N)c(C2=CCNCC2)c(=O)[nH]1 | > 200 µM | > 200 µM | 
O=C(NC1(C(=O)O)CC1c1ccccc1)c1ccccc1 (stereo not given) | > 200 µM | > 200 µM | 
CCc1nc(N)nc(N)c1-c1ccc(Cl)c(Cl)c1 | > 200 µM | 1.45 µM | 
COc1ccc(NC(=O)CC(=O)n2nc(-c3ccccc3)c(N=Nc3ccccc3C)c2-c2ccccc2)cc1 | > 13.5 µM | > 13.5 µM | 
C=CC12CCCCC1CC(C(=O)OC)=C(O)C2 (stereo not given) |  |  | inactive
O=C(c1ccco1)N(C(=O)N1CCCCC1)c1ccccc1 | > 200 µM | > 200 µM | 
Cn1c(Nc2ccccc2)c(C=Nc2ccccc2)c(=O)n(C)c1=O | > 100 µM | 53.7 µM | 
COc1ccc(-c2cc(-c3ccco3)c(C#N)c(=S)n2C2OC(CO)C(O)C(O)C2O)cc1 (stereo not given) | 37.2 µM | > 200 µM | 
NC(N)=NS(N)(=O)=O | > 200 µM | > 200 µM | 
C=C1C(=O)O[C@H]2C1C[C@@H](OC(C)=O)/C(C)=C/CC[C@@]1(C)O[C@H]21 (stereo not given in full) | > 200 µM | 1.2 µM | 
[Cl][Sn]([Cl])([c]1ccccc1)[c]1ccccc1 |  |  | inactive
CN(CCO)c1nc2c(c(=O)[nH]1)CNCC2 | > 288 µM | > 288 µM | 
Cc1ccc2nc(N/N=C/c3ccc(C)s3)cc(C)c2c1 | > 200 µM | 14.5 µM | 
Cc1cccc(N=Nc2ccc(O)c(CN(C)C)c2)c1 | > 200 µM | 34.7 µM | 
COc1cc(C2C(C(=O)Nc3ccccc3C)=C(C)NC(C)=C2C(=O)Nc2ccccc2C)ccc1O | > 363 µM | > 200 µM | 
O=C1C=C/C(=C/C(O)COC(=O)c2ccccc2)O1 (stereo not given) | > 138 µM | 77.6 µM | 
